Measured values reported in patent US8716292B2, “Riminophenazines with 2-(heteroaryl)amino substituents and their anti-microbial activity” (priority 2010, dated 2014).
In brackets after ≈: the same amount, converted by molar mass.

test system: Mycobacterium tuberculosis H37Rv strains; assay: In vitro assay for antimicrobial susceptibility (microplate Alamar blue MIC); assay type: cell-based; conditions: Mycobacterium tuberculosis, H37RV, in vitro, Mycobacterium tuberculosis H37Rv strains; read-out: MIC (μg/mL) against H37Rv

Compound	MIC [µg/mL]
OC1CCC(/N=c2\cc3n(-c4ccc(Br)cc4)c4ccccc4nc-3cc2Nc2cccnc2)CC1 (centres unmarked) [TBI-094, 5-(4-Bromophenyl)-3-(4-hydroxycyclohexyl)imino-2-(3-pyridyl)amino-3,5-dihydrophenazine]	0.5 (≈ 0.925 µM)
Cc1ccc(Nc2cc3nc4ccccc4n(-c4ccccc4)c-3c/c2=N\C2CC2)cn1 [TBI-095]	0.048 (≈ 0.115 µM)
Cc1cncc(Nc2cc3nc4ccccc4n(-c4ccccc4)c-3c/c2=N\C2CC2)c1 [TBI-096, 5-Phenyl-3-cyclopropylimino-2-(5-methyl-3-pyridyl)amino-3,5-dihydrophenazine]	0.069 (≈ 0.165 µM)
COc1ncccc1Nc1cc2nc3ccccc3n(-c3ccccc3)c-2c/c1=N\C1CC1 [TBI-097, 5-Phenyl-3-cyclopropylimino-2-(2-methoxy-3-pyridyl)amino-3,5-dihydrophenazine]	0.032 (≈ 0.0738 µM)
Brc1ccc(-n2c3c/c(=N\C4CCC4)c(Nc4cccnc4)cc-3nc3ccccc32)cc1 [TBI-098, 5-(4-Bromophenyl)-3-cyclobutylimino-2-(3-pyridyl)amino-3,5-dihydrophenazine]	0.028 (≈ 0.0564 µM)
Cc1ccc(Nc2cc3nc4ccccc4n(-c4ccc(Br)cc4)c-3c/c2=N\C(C)C)cn1 [TBI-099, 5-(4-Bromophenyl)-3-(1-methylethyl)imino-2-(6-methyl-3-pyridyl)amino-3,5-dihydrophenazine]	0.049 (≈ 0.0983 µM)
Cc1ccc(Nc2cc3nc4ccccc4n(-c4ccc(Br)cc4)c-3c/c2=N\C2CC2)cn1 [TBI-100, 5-(4-Bromophenyl)-3-cyclopropylimino-2-(6-methyl-3-pyridyl)amino-3,5-dihydrophenazine]	0.011 (≈ 0.0222 µM)
CC(C)/N=c1\cc2n(-c3ccc(OC(F)(F)F)cc3)c3ccccc3nc-2cc1Nc1cccnc1 [TBI-157, 5-(4-Trifluoromethoxyphenyl)-3-(1-methylethyl)imino-2-(3-pyridyl)amino-3,5-dihydrophenazine]	0.03 (≈ 0.0613 µM)
CC(C)CN1CCC(/N=c2\cc3n(-c4ccc(OC(F)(F)F)cc4)c4ccccc4nc-3cc2Nc2cccnc2)CC1 [TBI-158, 5-(4-Trifluoromethoxyphenyl)-3-(N-isobutyl-4-piperidyl)imino-2-(3-pyridyl)amino-3,5-dihydrophenazine]	0.03 (≈ 0.0511 µM)
CN1CCC(/N=c2\cc3n(-c4ccc(OC(F)(F)F)cc4)c4ccccc4nc-3cc2Nc2cccnc2)CC1 [TBI-159, 5-(4-Trifluoromethoxyphenyl)-3-(N-methyl-4-piperidyl)imino-2-(3-pyridyl)amino-3,5-dihydrophenazine]	0.25 (≈ 0.459 µM)
FC(F)(F)Oc1ccc(-n2c3c/c(=N\CCN4CCOCC4)c(Nc4cccnc4)cc-3nc3ccccc32)cc1 [TBI-160]	0.125 (≈ 0.223 µM)
COC1CCC(/N=c2\cc3n(-c4ccc(OC(F)(F)F)cc4)c4ccccc4nc-3cc2Nc2cccnc2)CC1 (centres unmarked) [TBI-162, 5-(4-Trifluoromethoxyphenyl)-3-(4-methoxycyclohexyl)imino-2-(3-pyridyl)amino-3,5-dihydrophenazine]	0.03 (≈ 0.0536 µM)
FC(F)(F)Oc1ccc(-n2c3c/c(=N\C4CCN(C5CCCC5)CC4)c(Nc4cccnc4)cc-3nc3ccccc32)cc1 [TBI-163, 5-(4-Trifluoromethoxyphenyl)-3-(N-cyclopentyl-4-piperidyl)imino-2-(3-pyridyl)amino-3,5-dihydrophenazine]	0.06 (≈ 0.1 µM)
COc1ncccc1Nc1cc2nc3ccccc3n(-c3ccc(OC(F)(F)F)cc3)c-2c/c1=N\C(C)C [TBI-164, 5-(4-Trifluoromethoxyphenyl)-3-(1-methylethyl)imino-2-(2-methoxy-3-pyridyl)amino-3,5-dihydrophenazine]	0.028 (≈ 0.0539 µM)
COc1ncccc1Nc1cc2nc3ccccc3n(-c3ccc(OC(F)(F)F)cc3)c-2c/c1=N\C1CCN(CC(C)C)CC1 [TBI-165, 5-(4-Trifluoromethoxyphenyl)-3-(N-isobutyl-4-piperidyl)imino-2-(2-methoxy-3-pyridyl)amino-3,5-dihydrophenazine]	0.016 (≈ 0.0259 µM)
COc1ncccc1Nc1cc2nc3ccccc3n(-c3ccc(OC(F)(F)F)cc3)c-2c/c1=N\C1CCOCC1 [TBI-167, 5-(4-Trifluoromethoxyphenyl)-3-(4-tetrahydropyranyl)imino-2-(2-methoxy-3-pyridyl)amino-3,5-dihydrophenazine]	0.016 (≈ 0.0285 µM)
COc1ncccc1Nc1cc2nc3ccccc3n(-c3ccc(OC(F)(F)F)cc3)c-2c/c1=N\C1CCN(C)CC1 [TBI-168, 5-(4-Trifluoromethoxyphenyl)-3-(N-methyl-4-piperidyl)imino-2-(2-methoxy-3-pyridyl)amino-3,5-dihydrophenazine]	0.109 (≈ 0.19 µM)
COc1ncccc1Nc1cc2nc3ccccc3n(-c3ccc(OC(F)(F)F)cc3)c-2c/c1=N\CCN1CCOCC1 [TBI-169, 5-(4-Trifluoromethoxyphenyl)-3-(2-morpholinoethyl)imino-2-(2-methoxy-3-pyridyl)amino-3,5-dihydrophenazine]	0.06 (≈ 0.102 µM)
Cc1ccc(-n2c3c/c(=N\C(C)C)c(Nc4cccnc4)cc-3nc3ccccc32)cc1 [TBI-300, 5-(4-Methylphenyl)-3-(1-methylethyl)imino-2-(3-pyridyl)amino-3,5-dihydrophenazine]	0.03 (≈ 0.0715 µM)

Compound	MIC [µg/mL]
COC1CCC(/N=c2\cc3n(-c4ccc(C)cc4)c4ccccc4nc-3cc2Nc2cccnc2)CC1 (centres unmarked) [TBI-301, 5-(4-Methylphenyl)-3-(4-methoxycyclohexyl)imino-2-(3-pyridyl)amino-3,5-dihydrophenazine]	0.06 (≈ 0.123 µM)
Cc1ccc(-n2c3c/c(=N\CCN4CCOCC4)c(Nc4cccnc4)cc-3nc3ccccc32)cc1 [TBI-302, 5-(4-Methylphenyl)-3-(2-morpholinoethyl)imino-2-(3-pyridyl)amino-3,5-dihydro-phenazine]	0.125 (≈ 0.255 µM)
Cc1ccc(-n2c3c/c(=N\C4CCOCC4)c(Nc4cccnc4)cc-3nc3ccccc32)cc1 [TBI-303, 5-(4-Methylphenyl)-3-(4-tetrahydropyranyl)imino-2-(3-pyridinyl)amino-3,5-dihydrophenazine]	0.03 (≈ 0.065 µM)
Cc1ccc(-n2c3c/c(=N\C4CCN(C)CC4)c(Nc4cccnc4)cc-3nc3ccccc32)cc1 [TBI-304, 5-(4-Methylphenyl)-3-(N-methyl-4-piperidyl)imino-2-(3-pyridinyl)amino-3,5-dihydro-phenazine]	0.25 (≈ 0.527 µM)
Cc1ccc(-n2c3c/c(=N\C4CCN(CC(C)C)CC4)c(Nc4cccnc4)cc-3nc3ccccc32)cc1 [TBI-305, 5-(4-Methylphenyl)-3-(N-isobutyl-4-piperidyl)imino-2-(3-pyridyl)amino-3,5-dihydrophenazine]	0.125 (≈ 0.242 µM)
Cc1ccc(-n2c3c/c(=N\C4CCCCC4)c(Nc4ccc(C)nc4)cc-3nc3ccccc32)cc1 [TBI-306, 5-(4-Methylphenyl)-3-cyclohexylimino-2-(6-methyl-3-pyridyl)amino-3,5-dihydrophenazine]	0.106 (≈ 0.224 µM)
Cc1ccc(-n2c3c/c(=N\C4CCN(C5CCCC5)CC4)c(Nc4cccnc4)cc-3nc3ccccc32)cc1 [TBI-307, 5-(4-Methylphenyl)-3-(N-cyclopentyl-4-piperidyl)imino-2-(3-pyridyl)amino-3,5-dihydrophenazine]	0.125 (≈ 0.236 µM)
COc1ncccc1Nc1cc2nc3ccccc3n(-c3ccc(C)cc3)c-2c/c1=N\C(C)C [TBI-308, 5-(4-Methylphenyl)-3-(1-methylethyl)imino-2-(2-methoxy-3-pyridyl)amino-3,5-dihydrophenazine]	0.125 (≈ 0.278 µM)
COc1ncccc1Nc1cc2nc3ccccc3n(-c3ccc(C)cc3)c-2c/c1=N\C1CCC(OC)CC1 (centres unmarked) [TBI-309, 5-(4-Methylphenyl)-3-(4-methoxycyclohexyl)imino-2-(2-methoxy-3-pyridyl)amino-3,5-dihydrophenazine]	0.06 (≈ 0.115 µM)
COc1ncccc1Nc1cc2nc3ccccc3n(-c3ccc(C)cc3)c-2c/c1=N\C1CCOCC1 [TBI-310, 5-(4-Methylphenyl)-3-(4-tetrahydropyranyl)imino-2-(2-methoxy-3-pyridyl)amino-3,5-dihydrophenazine]	0.03 (≈ 0.061 µM)
COc1ncccc1Nc1cc2nc3ccccc3n(-c3ccc(C)cc3)c-2c/c1=N\CCN1CCOCC1 [TBI-311, 5-(4-Methylphenyl)-3-(2-morpholinoethyl)imino-2-(2-methoxy-3-pyridyl)amino-3,5-dihydrophenazine]	0.125 (≈ 0.24 µM)
Cc1ccc(-n2c3c/c(=N\C4CCCCC4)c(Nc4cccnc4C)cc-3nc3ccccc32)cc1 [TBI-312, 5-(4-Methylphenyl)-3-cyclohexylimino-2-(2-methyl-3-pyridyl)amino-3,5-dihydrophenazine]	0.053 (≈ 0.112 µM)
COc1ncccc1Nc1cc2nc3ccccc3n(-c3ccc(C)cc3)c-2c/c1=N\C1CCN(C)CC1 [TBI-313, 5-(4-Methylphenyl)-3-(N-methyl-4-piperidyl)imino-2-(2-methoxy-3-pyridyl)amino-3,5-dihydrophenazine]	0.016 (≈ 0.0317 µM)
COc1ncccc1Nc1cc2nc3ccccc3n(-c3ccc(C)cc3)c-2c/c1=N\C1CCN(CC(C)C)CC1 [TBI-314, 5-(4-Methylphenyl)-3-(N-isobutyl-4-piperidyl)imino-2-(2-methoxy-3-pyridyl)amino-3,5-dihydrophenazine]	0.024 (≈ 0.0439 µM)
Cc1ccc(-n2c3c/c(=N\C(C)C)c(Nc4ccc(C)nc4)cc-3nc3ccccc32)cc1 [TBI-315, 5-(4-Methylphenyl)-3-(1-methylethyl)imino-2-(6-methyl-3-pyridyl)amino-3,5-dihydrophenazine]	0.057 (≈ 0.131 µM)
COC1CCC(/N=c2\cc3n(-c4ccc(C)cc4)c4ccccc4nc-3cc2Nc2ccc(C)nc2)CC1 (centres unmarked) [TBI-316, 5-(4-Methylphenyl)-3-(4-methoxycyclohexyl)imino-2-(6-methyl-3-pyridyl)amino-3,5-dihydrophenazine]	0.028 (≈ 0.0556 µM)
Cc1ccc(-n2c3c/c(=N\C4CCOCC4)c(Nc4ccc(C)nc4)cc-3nc3ccccc32)cc1 [TBI-317, 5-(4-Methylphenyl)-3-(4-tetrahydropyranyl)imino-2-(6-methyl-3-pyridyl)amino-3,5-dihydrophenazine]	0.055 (≈ 0.116 µM)
Cc1ccc(-n2c3c/c(=N\CCN4CCOCC4)c(Nc4ccc(C)nc4)cc-3nc3ccccc32)cc1 [TBI-318, 5-(4-Methylphenyl)-3-(2-morpholinoethyl)imino-2-(6-methyl-3-pyridyl)amino-3,5-dihydrophenazine]	0.087 (≈ 0.172 µM)
Cc1ccc(-n2c3c/c(=N\C4CCN(C)CC4)c(Nc4ccc(C)nc4)cc-3nc3ccccc32)cc1 [TBI-319, 5-(4-Methylphenyl)-3-(N-methyl-4-piperidyl)imino-2-(6-methyl-3-pyridyl)amino-3,5-dihydrophenazine]	0.173 (≈ 0.354 µM)
